Experimental findings from ChEMBL document CHEMBL4680363, “Novel Bicyclic Heterocycles as FGFR Inhibitors for Treating Cancer” (ACS Med Chem Lett, 2021) are described below.

What is called IC50 is the concentration that inhibits the measured activity by half.

In the assay the target is Fibroblast growth factor receptor 3 (Homo sapiens, UniProt P22607). In words: Inhibition of recombinant human N-terminal His6-tagged FGFR3 (447 to 761 residues) expressed in Sf21 cells using biotinylated EQEDEPEGDYFEWLE peptide as substrate preincubated for 4 hrs followed by substrate addition and measured after 1 hr in presence of ATP by FRET assay.
Chain of Fibroblast growth factor receptor 3 (P22607 whole entry, the tested form may be a part): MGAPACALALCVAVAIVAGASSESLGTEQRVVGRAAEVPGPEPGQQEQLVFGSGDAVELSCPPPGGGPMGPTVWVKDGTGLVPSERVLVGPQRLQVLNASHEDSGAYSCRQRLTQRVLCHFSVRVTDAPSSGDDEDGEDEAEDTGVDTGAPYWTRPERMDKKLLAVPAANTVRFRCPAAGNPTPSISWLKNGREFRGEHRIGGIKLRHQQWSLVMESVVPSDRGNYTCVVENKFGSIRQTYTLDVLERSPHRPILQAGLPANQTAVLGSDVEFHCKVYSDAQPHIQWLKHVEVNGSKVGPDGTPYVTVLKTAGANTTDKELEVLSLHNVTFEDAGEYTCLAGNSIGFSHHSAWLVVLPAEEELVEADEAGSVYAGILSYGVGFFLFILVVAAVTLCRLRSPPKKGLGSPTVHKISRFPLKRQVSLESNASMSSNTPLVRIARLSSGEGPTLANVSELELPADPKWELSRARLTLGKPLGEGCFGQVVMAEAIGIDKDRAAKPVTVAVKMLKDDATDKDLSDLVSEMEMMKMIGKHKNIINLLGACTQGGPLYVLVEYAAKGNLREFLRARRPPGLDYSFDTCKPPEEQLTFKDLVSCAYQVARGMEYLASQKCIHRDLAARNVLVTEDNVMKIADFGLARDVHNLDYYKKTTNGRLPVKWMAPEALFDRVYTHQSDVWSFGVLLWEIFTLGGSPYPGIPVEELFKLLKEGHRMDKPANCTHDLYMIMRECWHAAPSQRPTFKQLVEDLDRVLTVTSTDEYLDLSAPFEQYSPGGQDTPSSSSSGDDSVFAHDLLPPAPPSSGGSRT

On to `CC(C)C1C(=O)N(C)CCN1c1ccc2[nH]nc(-c3cnn(Cc4cccnc4)c3)c2n1` (stereo unspecified), for which the IC50 was under 10 nM.

As for `Cn1cc(-c2n[nH]c3ccc(N4CCn5cnc(C(F)(F)F)c5C4)nc23)cn1`, the IC50 is under 10 nM.

As to `CC(C)C1C(=O)N(C)CCN1c1ccc2[nH]nc(-c3cnn(C)c3)c2n1` (stereo unspecified), the IC50 was under 10 nM.

Regarding `CN1CCN(c2ccc3[nH]nc(-c4cnn(C)c4)c3n2)C(C2CC2)C1=O` (stereo unspecified), the IC50 was under 10 nM.

For the compound `CC(C)C1C(=O)N(C)CCN1c1ccc2[nH]nc(-c3cc4cnccc4s3)c2n1` (stereo unspecified), the IC50 was under 10 nM.

`CC1CN(c2ccc3[nH]nc(-c4cnn(C)c4)c3n2)C(C)C(=O)N1C` (stereo unspecified): the IC50 is under 10 nM.
